Assay results as given in ChEMBL document CHEMBL1201862, “PubChem BioAssay data set” (2004).
pIC50: −log10 of the molar value. Activity calls are given as the source filed them.

How the values were obtained:
HEK293 [1] = experiment: cells; format: functional, cell-based; settings: Homo sapiens
HEK293 [2] = experiment: cells; format: functional, cell-based; settings: Homo sapiens; remark: listed apart in the source
[3] = system: Streptococcus sp. 'group A'; experiment: growth inhibition of control SK(-) GAS strain, dose response, counter-screen for streptokinase expression inhibitor project, luminescence, kanamycin, BacTiterGlo, confirmation (AID 1900); format: functional, organism-based
Beta-galactosidase [4] = target: T1, Beta-galactosidase (Escherichia coli, UniProt Q8VNN2); experiment: PubChem AID 485352; format: functional
HEK293 [5] = experiment: NOD1 signaling inhibitors, primary screen, cell-based, luminescence, uHTS (AID 1578); format: functional; settings: Homo sapiens
[6] = target: T2, Delta-type opioid receptor (Homo sapiens, UniProt P41143); experiment: HTS Image-Based Screen for Agonists of the DOR Receptor. [Related pubchem assays (depositor defined):AID1777, AID1786, AID2133]; format: functional
Mu-type opioid receptor = Mu-type opioid receptor (Homo sapiens, UniProt P35372); experiment: HTS Image-Based Screen for Agonists of the MOR Receptor. [Related pubchem assays (depositor defined):AID1777, AID1785, AID1786, AID2133]; format: functional;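 further: imaging of beta-arrestin GFP recruitment into spots after receptor activation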
Beta-galactosidase [7] = target: T1, Beta-galactosidase; format: functional
HEK293 [8] = experiment: NOD2 signaling inhibitors in MDP-stimulated cells, cell-based, uHTS, luminescence (AID 2001); format: functional; settings: Homo sapiens
[9] = target: T3, Kappa-type opioid receptor (Homo sapiens, UniProt P41145); format: functional
Streptococcus = experiment: Group A Streptococcus viability loss, dose response, counter-screen for streptokinase expression inhibitor project, luminescence, BacTiterGlo (AID 1915); format: functional, organism-based;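 further: potency for reduction of bacterial viability or growth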
[10] = target: T3, Kappa-type opioid receptor; format: functional; remark: listed apart in the source
[11] = target: T4, Type-1 angiotensin II receptor (Homo sapiens, UniProt P30556); experiment: AT1 receptor antagonists, dose response, selectivity assay for APJ receptor antagonist project, cell-based, uHTS hits (AID 463214); format: functional;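 further: antagonist potency against angiotensin II stimulated AT1 response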
T4 sequence (P30556 whole entry): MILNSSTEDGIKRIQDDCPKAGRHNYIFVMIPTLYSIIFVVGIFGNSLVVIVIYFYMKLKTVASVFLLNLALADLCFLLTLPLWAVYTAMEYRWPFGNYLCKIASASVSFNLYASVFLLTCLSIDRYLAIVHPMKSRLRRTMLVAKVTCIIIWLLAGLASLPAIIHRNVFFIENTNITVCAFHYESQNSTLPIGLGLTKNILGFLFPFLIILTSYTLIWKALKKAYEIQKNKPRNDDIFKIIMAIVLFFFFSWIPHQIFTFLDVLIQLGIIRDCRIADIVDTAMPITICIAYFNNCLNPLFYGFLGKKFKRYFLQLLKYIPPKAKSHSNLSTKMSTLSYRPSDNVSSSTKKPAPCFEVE

[12] = target: T2, Delta-type opioid receptor; experiment: HTS Image-Based Screen for Antagonists of the DOR Receptor. [Related pubchem assays (depositor defined):AID1777, AID1785, AID1786, AID2133]; format: functional
[13] = target: T5, G-protein coupled receptor 55 (Homo sapiens, UniProt Q9Y2T6); experiment: GPR55 antagonists, SAR follow-up, counter-screen for GPR35 antagonist project, imaging, image-based (AID 2397); format: functional
[14] = target: Voltage-dependent T-type calcium channel subunit alpha-1H (Homo sapiens, UniProt O95180); experiment: Cav3.2 T-type channel inhibitors, synthesized analogs, SAR follow-up, cell-based, synthetic library set 2, HEK293 HH8, Fluo-4 (AID 493023); format: functional
[15] = target: T5, G-protein coupled receptor 55; experiment: SAR Analysis of Selective Antagonists of GPR55 using an Image-Based Assay - Set 4. [Related pubchem assays (depositor defined):AID2013, AID2026]; format: functional
[16] = target: T6, G-protein coupled receptor 35 (Homo sapiens, UniProt Q9HC97); experiment: SAR analysis of Antagonists of the GPR35 Receptor using an Image-Based Assay - Set 6. [Related pubchem assays (depositor defined):AID2013, AID2026]; format: functional
Cannabinoid receptor 1 [17] = target: T7, Cannabinoid receptor 1 (Homo sapiens, UniProt P21554); experiment: SAR analysis of antagonists of the Cannabinoid Receptor 1 using an Image-Based Assay - Set 4. [Related pubchem assays (depositor defined):AID2013, AID2026]; format: functional
Cannabinoid receptor 2 [18] = target: T8, Cannabinoid receptor 2 (Homo sapiens, UniProt P34972); experiment: SAR analysis of agonists of the Cannabinoid Receptor 2 using an Image-Based Assay - Set 3. [Related pubchem assays (depositor defined):AID2013, AID2026]; format: functional
[19] = target: T6, G-protein coupled receptor 35; experiment: SAR analysis of Agonists of the GPR35 Receptor using an Image-Based Assay - Set 4. [Related pubchem assays (depositor defined):AID2013, AID2026]; format: functional
Cannabinoid receptor 1 [20] = target: T7, Cannabinoid receptor 1; experiment: SAR analysis of agonists of the Cannabinoid Receptor 1 using an Image-Based Assay - Set 4. [Related pubchem assays (depositor defined):AID2013, AID2026]; format: functional
Cannabinoid receptor 2 [21] = target: T8, Cannabinoid receptor 2; experiment: SAR analysis of antagonists of the Cannabinoid Receptor 2 using an Image-Based Assay - Set 3. [Related pubchem assays (depositor defined):AID2013, AID2026]; format: functional

T1 sequence (Q8VNN2 whole entry): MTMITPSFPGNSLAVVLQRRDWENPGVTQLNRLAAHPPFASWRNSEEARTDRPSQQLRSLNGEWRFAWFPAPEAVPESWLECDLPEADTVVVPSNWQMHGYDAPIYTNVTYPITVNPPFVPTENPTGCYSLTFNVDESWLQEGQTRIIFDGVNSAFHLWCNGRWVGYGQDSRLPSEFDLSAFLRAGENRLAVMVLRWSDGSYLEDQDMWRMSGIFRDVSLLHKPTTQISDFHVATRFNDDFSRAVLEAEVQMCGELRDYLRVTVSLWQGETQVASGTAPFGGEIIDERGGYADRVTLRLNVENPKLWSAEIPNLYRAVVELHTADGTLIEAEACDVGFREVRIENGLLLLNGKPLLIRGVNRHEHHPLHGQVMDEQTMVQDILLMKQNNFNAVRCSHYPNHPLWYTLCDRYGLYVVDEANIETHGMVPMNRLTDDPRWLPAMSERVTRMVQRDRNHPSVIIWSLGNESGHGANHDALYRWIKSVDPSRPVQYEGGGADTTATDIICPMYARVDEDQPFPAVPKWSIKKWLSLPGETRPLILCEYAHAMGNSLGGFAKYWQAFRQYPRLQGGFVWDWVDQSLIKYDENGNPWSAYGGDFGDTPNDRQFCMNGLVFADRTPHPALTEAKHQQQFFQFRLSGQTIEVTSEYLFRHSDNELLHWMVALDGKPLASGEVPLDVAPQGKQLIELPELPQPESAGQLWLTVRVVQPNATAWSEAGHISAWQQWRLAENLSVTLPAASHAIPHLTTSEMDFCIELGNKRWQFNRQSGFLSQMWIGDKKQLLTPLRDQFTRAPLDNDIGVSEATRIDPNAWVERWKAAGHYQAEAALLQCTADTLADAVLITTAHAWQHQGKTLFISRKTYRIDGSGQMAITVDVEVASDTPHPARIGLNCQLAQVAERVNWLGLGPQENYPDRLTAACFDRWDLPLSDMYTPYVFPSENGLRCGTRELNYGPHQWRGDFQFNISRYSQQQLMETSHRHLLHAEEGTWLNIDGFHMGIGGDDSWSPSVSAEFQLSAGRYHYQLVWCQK
T8 sequence (P34972 whole entry): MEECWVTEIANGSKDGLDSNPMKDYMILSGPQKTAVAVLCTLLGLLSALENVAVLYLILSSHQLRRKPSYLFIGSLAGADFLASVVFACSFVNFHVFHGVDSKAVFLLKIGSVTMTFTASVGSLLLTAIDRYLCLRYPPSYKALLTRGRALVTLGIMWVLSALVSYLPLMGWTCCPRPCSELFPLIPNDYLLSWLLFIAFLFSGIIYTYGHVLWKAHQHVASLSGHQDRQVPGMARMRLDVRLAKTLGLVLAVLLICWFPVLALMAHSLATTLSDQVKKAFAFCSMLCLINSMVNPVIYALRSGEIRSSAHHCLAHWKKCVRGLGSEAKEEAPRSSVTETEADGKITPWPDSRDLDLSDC
T6 sequence (Q9HC97 whole entry): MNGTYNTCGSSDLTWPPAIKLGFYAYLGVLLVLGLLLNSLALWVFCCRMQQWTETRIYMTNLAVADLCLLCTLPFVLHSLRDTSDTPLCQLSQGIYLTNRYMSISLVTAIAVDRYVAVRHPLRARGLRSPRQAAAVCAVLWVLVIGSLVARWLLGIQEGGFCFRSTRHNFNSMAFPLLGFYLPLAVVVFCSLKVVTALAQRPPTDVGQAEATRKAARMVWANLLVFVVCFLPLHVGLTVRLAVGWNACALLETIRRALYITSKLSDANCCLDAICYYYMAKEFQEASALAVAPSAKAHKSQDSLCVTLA
T2 sequence (P41143 whole entry): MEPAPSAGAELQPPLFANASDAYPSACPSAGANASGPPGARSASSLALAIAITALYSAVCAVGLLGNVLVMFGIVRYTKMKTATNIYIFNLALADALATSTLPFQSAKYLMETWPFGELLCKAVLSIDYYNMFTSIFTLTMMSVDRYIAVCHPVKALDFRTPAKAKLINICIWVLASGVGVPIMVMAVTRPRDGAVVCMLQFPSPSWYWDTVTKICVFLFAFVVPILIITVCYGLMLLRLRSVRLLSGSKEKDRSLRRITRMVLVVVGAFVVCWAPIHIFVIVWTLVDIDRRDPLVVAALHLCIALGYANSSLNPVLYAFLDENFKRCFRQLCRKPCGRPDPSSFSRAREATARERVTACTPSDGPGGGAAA
T7 sequence (P21554 whole entry): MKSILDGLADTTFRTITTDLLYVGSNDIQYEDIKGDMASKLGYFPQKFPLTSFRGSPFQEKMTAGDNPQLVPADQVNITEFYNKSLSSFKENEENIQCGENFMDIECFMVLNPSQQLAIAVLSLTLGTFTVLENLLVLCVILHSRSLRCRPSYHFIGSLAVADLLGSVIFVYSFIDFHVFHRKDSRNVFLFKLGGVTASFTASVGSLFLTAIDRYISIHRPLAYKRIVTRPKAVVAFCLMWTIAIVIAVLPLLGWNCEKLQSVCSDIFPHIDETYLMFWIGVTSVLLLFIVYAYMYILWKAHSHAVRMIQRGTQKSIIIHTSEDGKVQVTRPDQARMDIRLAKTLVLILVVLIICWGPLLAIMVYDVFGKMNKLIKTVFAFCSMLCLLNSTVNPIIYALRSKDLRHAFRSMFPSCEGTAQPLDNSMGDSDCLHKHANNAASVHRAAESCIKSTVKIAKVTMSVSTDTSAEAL
T5 sequence (Q9Y2T6 whole entry): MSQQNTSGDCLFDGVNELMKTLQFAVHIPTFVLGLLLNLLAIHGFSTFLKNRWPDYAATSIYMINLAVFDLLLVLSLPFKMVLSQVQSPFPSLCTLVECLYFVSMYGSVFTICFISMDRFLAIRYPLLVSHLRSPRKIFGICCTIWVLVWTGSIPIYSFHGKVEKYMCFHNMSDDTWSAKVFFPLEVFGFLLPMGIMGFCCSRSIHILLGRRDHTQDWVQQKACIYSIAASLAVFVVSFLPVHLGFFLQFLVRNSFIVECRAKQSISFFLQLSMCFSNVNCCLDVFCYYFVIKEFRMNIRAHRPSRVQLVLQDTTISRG
T3 sequence (P41145 whole entry): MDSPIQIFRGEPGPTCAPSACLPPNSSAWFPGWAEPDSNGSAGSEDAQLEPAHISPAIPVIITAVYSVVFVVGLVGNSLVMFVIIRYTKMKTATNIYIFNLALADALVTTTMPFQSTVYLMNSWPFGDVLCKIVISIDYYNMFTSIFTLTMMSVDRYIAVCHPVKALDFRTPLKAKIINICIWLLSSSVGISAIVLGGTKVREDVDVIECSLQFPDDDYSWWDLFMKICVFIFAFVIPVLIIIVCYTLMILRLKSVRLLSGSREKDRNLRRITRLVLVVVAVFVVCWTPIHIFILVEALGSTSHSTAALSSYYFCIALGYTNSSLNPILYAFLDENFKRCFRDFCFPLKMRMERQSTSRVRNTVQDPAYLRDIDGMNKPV
Sequence of Mu-type opioid receptor (P35372 whole entry): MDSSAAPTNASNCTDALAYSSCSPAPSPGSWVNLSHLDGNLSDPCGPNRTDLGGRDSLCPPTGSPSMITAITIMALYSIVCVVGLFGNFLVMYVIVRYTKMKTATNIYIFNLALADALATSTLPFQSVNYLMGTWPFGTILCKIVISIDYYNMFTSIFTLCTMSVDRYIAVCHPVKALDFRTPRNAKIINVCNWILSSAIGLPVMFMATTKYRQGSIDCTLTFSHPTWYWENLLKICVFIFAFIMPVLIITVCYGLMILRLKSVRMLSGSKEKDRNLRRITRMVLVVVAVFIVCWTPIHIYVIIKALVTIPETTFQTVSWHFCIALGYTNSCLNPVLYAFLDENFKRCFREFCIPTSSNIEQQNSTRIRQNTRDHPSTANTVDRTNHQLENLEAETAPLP

Which IC50 (HEK293 [1]) does the source give for `COc1cccc(/C=C/c2ccc3cccc(O)c3n2)c1OC` here?
Its IC50 is > 20 µM (inactive).

And the IC50 (HEK293 [2])?
Its IC50 is 10.6 µM (active).

What about the EC50 [3] of the same molecule?
Its EC50 is 1.68 µM (active).

And the EC50 (Beta-galactosidase [4])?
Its EC50 is > 40 µM (inactive).

What about the EC50 (HEK293 [5]) of the same molecule?
Its EC50 is > 20 µM (inactive).

And the EC50 [6]?
The EC50 was > 32 µM (inactive).

And the EC50 (Mu-type opioid receptor)?
The EC50 was > 32 µM (inactive).

What about the EC50 (Beta-galactosidase [7]) of the same molecule?
The EC50 was > 31.5 µM (inactive).

And the IC50 (HEK293 [8])?
Its IC50 is 5.45 µM (inactive).

What about the IC50 [9] of the same molecule?
The IC50 was > 31.5 µM (inactive).

And the EC50 (Streptococcus)?
The EC50 was 7.81 µM (active).

What about the pIC50 [10] of the same molecule?
The pIC50 was under 4.49.

And the IC50 [11]?
The IC50 was 15.6 µM (active).

And the IC50 [12]?
The IC50 was > 32 µM (inactive).

How did the IC50 [13] turn out when `Cc1ccc(C)c(OCCC(=O)NCCc2ccc(S(N)(=O)=O)cc2)c1` was run?
Its IC50 is > 32 µM (inactive).

Which EC50 [14] does the source give for `O=C(COc1ccccc1Cl)N[C@H]1CCCN(Cc2ccccc2)C1` here?
The EC50 was 10 µM (active).

With `Cc1nc(N2CCN(C(=O)c3ccncc3)CC2)c2c3c(sc2n1)CC(C)CC3` (stereo not drawn) as the molecule, how does the IC50 [15] read?
The IC50 was > 32 µM (inactive).

What about the IC50 [16] of the same molecule?
The IC50 was > 32 µM (inactive).

And the IC50 (Cannabinoid receptor 1 [17])?
Its IC50 is 13.3 µM (inactive).

And the EC50 (Cannabinoid receptor 2 [18])?
The EC50 was > 32 µM (inactive).

And the EC50 [19]?
Its EC50 is > 32 µM (inactive).

What about the EC50 (Cannabinoid receptor 1 [20]) of the same molecule?
The EC50 was > 32 µM (inactive).

What about the IC50 (Cannabinoid receptor 2 [21]) of the same molecule?
The IC50 was > 32 µM (inactive).
